Source: publication PMC4437783, “An Improved Method for P2X7R Antagonist Screening” (PLoS ONE, 2015)

Columns and labels:
Assay type in all cases: cell-based
[1] = biological target: T1, P2X7 receptor (mP2X7R) (Mus musculus, UniProt Q9Z1M0); assay: agonist dose-response, PI dye uptake in J774.G8 cells, plate reader
T1 construct: gene P2rx7; natively expressed in J774.G8 macrophages
T1 sequence (Q9Z1M0 1-595): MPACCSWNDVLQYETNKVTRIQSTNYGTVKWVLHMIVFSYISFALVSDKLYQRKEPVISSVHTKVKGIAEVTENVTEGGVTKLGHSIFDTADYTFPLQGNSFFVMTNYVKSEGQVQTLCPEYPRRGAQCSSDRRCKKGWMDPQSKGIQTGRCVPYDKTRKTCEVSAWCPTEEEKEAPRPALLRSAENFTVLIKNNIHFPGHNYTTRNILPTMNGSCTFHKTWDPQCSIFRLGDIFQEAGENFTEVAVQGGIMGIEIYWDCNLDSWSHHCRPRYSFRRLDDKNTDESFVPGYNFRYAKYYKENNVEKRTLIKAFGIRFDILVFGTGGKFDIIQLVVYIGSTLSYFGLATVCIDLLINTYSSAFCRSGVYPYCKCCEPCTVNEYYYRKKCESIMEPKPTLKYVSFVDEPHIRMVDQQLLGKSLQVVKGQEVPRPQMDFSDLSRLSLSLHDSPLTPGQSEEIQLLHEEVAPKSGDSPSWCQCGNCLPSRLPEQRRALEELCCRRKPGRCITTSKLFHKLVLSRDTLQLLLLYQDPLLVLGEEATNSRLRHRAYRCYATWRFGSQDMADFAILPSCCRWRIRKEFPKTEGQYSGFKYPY

[2] = biological target: T1, P2X7 receptor (mP2X7R); assay: inhibition of ATP-induced PI dye uptake in J774.G8 cells, plate reader
[3] = biological target: T1, P2X7 receptor (mP2X7R); assay: inhibition of ATP-induced dye uptake in J774.G8 cells, plate reader
[4] = biological target: T1, P2X7 receptor (mP2X7R); assay: block of ATP-induced PI dye uptake in J774.G8 cells at a single concentration ([…])
[5] = biological target: T2, P2X7 receptor (P2X7R) (Homo sapiens, UniProt Q99572); assay: block of ATP-induced PI dye uptake in U937 cells at a single concentration ([…])
T2 construct: gene P2RX7; native in U937 human monocyte cells
T2 sequence (Q99572 1-595): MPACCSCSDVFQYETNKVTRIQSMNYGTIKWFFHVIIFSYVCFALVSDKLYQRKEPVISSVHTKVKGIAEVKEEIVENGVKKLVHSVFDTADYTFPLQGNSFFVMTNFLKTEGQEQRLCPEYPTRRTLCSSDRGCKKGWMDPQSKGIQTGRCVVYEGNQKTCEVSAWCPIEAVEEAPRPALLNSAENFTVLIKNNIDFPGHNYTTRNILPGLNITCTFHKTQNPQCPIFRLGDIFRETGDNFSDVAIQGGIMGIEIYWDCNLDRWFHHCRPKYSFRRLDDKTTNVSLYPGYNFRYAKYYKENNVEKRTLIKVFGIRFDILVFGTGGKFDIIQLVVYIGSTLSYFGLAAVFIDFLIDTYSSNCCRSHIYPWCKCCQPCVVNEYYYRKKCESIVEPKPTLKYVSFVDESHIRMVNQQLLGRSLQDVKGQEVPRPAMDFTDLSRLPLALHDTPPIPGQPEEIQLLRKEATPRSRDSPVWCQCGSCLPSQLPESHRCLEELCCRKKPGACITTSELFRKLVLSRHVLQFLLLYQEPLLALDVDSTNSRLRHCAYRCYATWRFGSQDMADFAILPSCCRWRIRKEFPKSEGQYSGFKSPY

**Q.** With `Nc1ncnc2c1ncn2[C@@H]1O[C@H](COP(=O)(O)OP(=O)(O)OP(=O)(O)O)[C@@H](O)[C@H]1O` [ATP] as the compound, how does the EC50 [1] read?
**A.** 700 ± 70 µM

**Q.** For `CCOc1ccc(Nc2ccc(/C(=C3C=C/C(=[N+](/CC)Cc4cccc(S(=O)(=O)[O-])c4)C=C/3C)c3ccc(N(CC)Cc4cccc(S(=O)(=O)O)c4)cc3C)cc2)cc1` [BBG, Brilliant Blue G], which IC50 [2] is on record?
**A.** 1.3 to 2.6 µM

**Q.** Which IC50 [3] does the source give for `Nc1ncnc2c1ncn2[C@@H](C=O)O[C@@H](C=O)COP(=O)(O)OP(=O)(O)OP(=O)(O)O` [OATP, oxidized ATP] here?
**A.** 173 to 285 µM

**Q.** Which results are given for `O=C1CSC(=O)N1C(CCc1ccncc1)COc1ccc(-c2cccc([N+](=O)[O-])c2)cc1` (centres unmarked) [AZ, AZ11645373]?
**A.** block of ATP-induced PI dye uptake in J774.G8 cells at a single concentration (1) [4]: the treatment with the selective P2X7R antagonist AZ11645373 blocked the dye uptake; block of ATP-induced PI dye uptake in U937 cells at a single concentration (10 μ) [5]: the treatment with the selective P2X7R antagonist AZ11645373 blocked the dye uptake
